Experimental data published in ChEMBL document CHEMBL1201862, “PubChem BioAssay data set” (2004).
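Exposure lasted 48 hours, with cells grown in 96-well plates and compounds tested at five concentrations. GI50 marks 50% less growth.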 Activity calls are given as the source filed them. Cut-off read from the data, not from the text of the source: active = GI50 up to about 1.1 µM and inactive = higher.

Experiments:
Assay in all cases: growth of human tumour cells (NCI), 48 h
SF-268 = system: SF-268
SK-OV-3 = system: SK-OV-3
SNB-19 = system: SNB-19
SNB-75 = system: SNB-75
IGROV-1 = system: IGROV-1
ACHN = system: ACHN
OVCAR-5 = system: OVCAR-5
SN12C = system: SN12C
HCT-116 = system: HCT-116
OVCAR-4 = system: OVCAR-4
SK-MEL-5 = system: SK-MEL-5
HCT-15 = system: HCT-15
UACC-257 = system: UACC-257
MOLT-4 = system: MOLT-4
UO-31 = system: UO-31
TK-10 = system: TK-10
EKVX = system: EKVX
A498 = system: A498
LOX IMVI = system: LOX IMVI
OVCAR-8 = system: OVCAR-8

| SMILES | GI50 (SF-268) | GI50 (SK-OV-3) | GI50 (SNB-19) | GI50 (SNB-75) | GI50 (IGROV-1) | GI50 (ACHN) | GI50 (OVCAR-5) | GI50 (SN12C) | GI50 (HCT-116) | GI50 (OVCAR-4) | GI50 (SK-MEL-5) | GI50 (HCT-15) | GI50 (UACC-257) | GI50 (MOLT-4) | GI50 (UO-31) | GI50 (TK-10) | GI50 (EKVX) | GI50 (A498) | GI50 (LOX IMVI) | GI50 (OVCAR-8) |
| --- | --- | --- | --- | --- | --- | --- | --- | --- | --- | --- | --- | --- | --- | --- | --- | --- | --- | --- | --- | --- |
| Nc1nc(O)c2[nH]nnc2n1 [8-AZAGUANINE] | 0.406 µM (active) | 1.04 µM (active) | 42.7 µM (inactive) | 1.54 µM (inactive) | 63.8 µM (inactive) | 16.3 µM (inactive) | 21.9 µM (inactive) | 0.334 µM (active) | 0.881 µM (active) | 12.9 µM (inactive) | 0.748 µM (active) | 24 µM | 0.735 µM (active) | 0.272 µM (active) | 0.366 µM (active) | 0.408 µM (active) | 11.4 µM (inactive) | 11.6 µM (inactive) | 0.223 µM (active) | 0.551 µM (active) |
| OC1(c2ccccc2)CC2CCC(C1)N2CCCC(O)(c1ccccc1)c1ccccc1 (stereo not drawn) | 13.4 µM (inactive) | 13.8 µM (inactive) | 20.7 µM (inactive) | 11.2 µM (inactive) | 7.98 µM (inactive) | 17.2 µM (inactive) | 25.8 µM (inactive) | 16.7 µM (inactive) | 14.6 µM (inactive) | 33.8 µM (inactive) | 3.2 µM (inactive) | 14.2 µM | 2 µM (inactive) | 7.45 µM (inactive) | 7.55 µM (inactive) | 12.7 µM (inactive) | 16.5 µM (inactive) | 15.5 µM (inactive) | 10.6 µM (inactive) | 19.2 µM (inactive) |
| C=CC(=O)N1C/C(=C\c2ccc(Cl)cc2)C(=O)/C(=C/c2ccc(Cl)cc2)C1 | 0.221 µM (active) | 0.656 µM (active) | 1 µM (active) | 0.405 µM (active) | 0.353 µM (active) | 0.286 µM (active) | 0.641 µM (active) | 0.313 µM (active) | 0.0923 µM (active) | 0.286 µM (active) | 1.36 µM (inactive) | 0.182 µM | 1.19 µM (inactive) | 0.3 µM (active) | 0.335 µM (active) | 1.39 µM (inactive) | 0.885 µM (active) | 0.494 µM (active) | 0.124 µM (active) | 0.322 µM (active) |
| O=C(O)C(SC1=NC(=O)C2(NN1)c1ccccc1-c1ccccc12)SC1=NC(=O)C2(NN1)c1ccccc1-c1ccccc12 | > 10 µM (inactive) | > 10 µM (inactive) | > 10 µM (inactive) | 2.74 µM (inactive) | > 10 µM (inactive) | > 10 µM (inactive) | > 10 µM (inactive) | > 10 µM (inactive) | > 10 µM (inactive) | > 10 µM (inactive) | > 10 µM (inactive) | > 10 µM | > 10 µM (inactive) | 4.09 µM (inactive) | > 10 µM (inactive) | > 10 µM (inactive) | 9.64 µM (inactive) | > 10 µM (inactive) | 9.02 µM (inactive) | > 10 µM (inactive) |
| COC(=O)CC(SCCO)SCCO | > 100 µM (inactive) | > 100 µM (inactive) | > 100 µM (inactive) | 75.7 µM (inactive) | > 100 µM (inactive) | > 100 µM (inactive) | > 100 µM (inactive) | > 100 µM (inactive) | > 100 µM (inactive) | > 100 µM (inactive) | > 100 µM (inactive) | – | > 100 µM (inactive) | > 100 µM (inactive) | > 100 µM (inactive) | > 100 µM (inactive) | > 100 µM (inactive) | > 100 µM (inactive) | > 100 µM (inactive) | > 100 µM (inactive) |
| COC(=O)/C(=N\N)C(C(=O)C(=O)Nc1cc(Cl)ccc1Cl)c1nc2ccc([N+](=O)[O-])cc2nc1O (stereo not drawn) | > 100 µM (inactive) | > 100 µM (inactive) | – | > 100 µM (inactive) | 50.1 µM (inactive) | 50.9 µM (inactive) | > 100 µM (inactive) | > 100 µM (inactive) | > 100 µM (inactive) | > 100 µM (inactive) | > 100 µM (inactive) | 82.6 µM | > 100 µM (inactive) | > 100 µM (inactive) | 29.6 µM (inactive) | > 100 µM (inactive) | 72.9 µM (inactive) | > 100 µM (inactive) | > 100 µM (inactive) | > 100 µM (inactive) |
| O=C1C=CC2(CCC23C=CC(=O)O3)O1 (stereo not drawn) | > 100 µM (inactive) | > 100 µM (inactive) | > 100 µM (inactive) | > 100 µM (inactive) | > 100 µM (inactive) | > 100 µM (inactive) | > 100 µM (inactive) | > 100 µM (inactive) | > 100 µM (inactive) | > 100 µM (inactive) | – | > 100 µM | > 100 µM (inactive) | > 100 µM (inactive) | > 100 µM (inactive) | > 100 µM (inactive) | > 100 µM (inactive) | > 100 µM (inactive) | > 100 µM (inactive) | > 100 µM (inactive) |
| COc1ccccc1NC(=O)C1=C(C)NC(C)=C(C(=O)Nc2ccccc2OC)C1c1ccc(C)cc1 | > 100 µM (inactive) | > 100 µM (inactive) | > 100 µM (inactive) | 58.5 µM (inactive) | 58.7 µM (inactive) | 17.3 µM (inactive) | 70.3 µM (inactive) | > 100 µM (inactive) | 29.9 µM (inactive) | 43.4 µM (inactive) | 16.9 µM (inactive) | 33.1 µM | 51.5 µM (inactive) | – | 43 µM (inactive) | 69.5 µM (inactive) | 47.6 µM (inactive) | 23.3 µM (inactive) | > 100 µM (inactive) | 58.9 µM (inactive) |
| CCn1ncc(Oc2c(Cl)cc(N)cc2Cl)c(Cl)c1=O | 31 µM (inactive) | 31.3 µM (inactive) | 33.4 µM (inactive) | 51.5 µM (inactive) | 42.3 µM (inactive) | 57.9 µM (inactive) | 43.9 µM (inactive) | 79.3 µM (inactive) | 30.4 µM (inactive) | 54 µM (inactive) | 24 µM (inactive) | 27.8 µM | 31.6 µM (inactive) | – | 47.4 µM (inactive) | 47.2 µM (inactive) | 34.9 µM (inactive) | 47.3 µM (inactive) | 32.9 µM (inactive) | 56.5 µM (inactive) |
| CCOC(=O)C(CC/C=C\c1ccccc1)N1CCC[C@H]1C(=O)OC (stereo partly drawn) | > 100 µM (inactive) | > 100 µM (inactive) | > 100 µM (inactive) | > 100 µM (inactive) | > 100 µM (inactive) | > 100 µM (inactive) | > 100 µM (inactive) | > 100 µM (inactive) | > 100 µM (inactive) | > 100 µM (inactive) | > 100 µM (inactive) | – | > 100 µM (inactive) | 39.1 µM (inactive) | > 100 µM (inactive) | > 100 µM (inactive) | > 100 µM (inactive) | > 100 µM (inactive) | > 100 µM (inactive) | > 100 µM (inactive) |
| CC(=O)c1cccc(NC(=O)C(=O)C(c2cnc3ccc([N+](=O)[O-])cc3n2)[N+](=O)[O-])c1 (stereo not drawn) | > 100 µM (inactive) | > 100 µM (inactive) | > 100 µM (inactive) | > 100 µM (inactive) | > 100 µM (inactive) | > 100 µM (inactive) | > 100 µM (inactive) | > 100 µM (inactive) | 58.3 µM (inactive) | > 100 µM (inactive) | – | > 100 µM | > 100 µM (inactive) | 36.7 µM (inactive) | 38.5 µM (inactive) | > 100 µM (inactive) | > 100 µM (inactive) | > 100 µM (inactive) | > 100 µM (inactive) | > 100 µM (inactive) |
